Reference: patent publication US20080085885A1, “Inhibition Of Voluntary Ethanol Consumption With Non-Peptidyl Melanocortin-4 Receptor Agonists” (priority 2004, published 2008)
Entries after “also recorded” stand apart in the source; their conditions may differ.

Experiments:
AA rats = AA rats with established ethanol intake; Ploj et al. 2002; cited from earlier work
Male Wistar rats [1] = assay: Alcohol deprivation effect (ADE) after 10 day deprivation (animal model of alcohol relapse); type: in vivo, rat; conditions: for Alcohol deprivation effect (ethanol consumed after 10 day deprivation): po
Description: (§1) FIG. 1. Operant training for oral ethanol across 30 minute test sessions in rats (n=8-10). Rats were trained on a continuous reinforcement (FR-1) schedule using a saccharine fading procedure and once stable levels of ethanol self-administration (10% w/v) were achieved, testing was initiated. Test 1 examined the effects of melanocortin 4 receptor agonist, Compound A, on maintenance levels of ethanol self-administration and Test 2 examined the effects of Compound A on the Alcohol Deprivation Effect (ADE).
FIG. 3. […] Operant training for oral ethanol in 30 minute test sessions in rats (n=8-10). Following the maintenance self-administration test, rats were rebaselined prior to being confined to their home-cages for a 10 day deprivation period. Melanocortin 4 receptor agonist, Compound A was administered at 0, 5, 10 or 20 mg/kg, po prior to reintroduction to the test chambers following deprivation. […] The symbol * indicates a significant difference between baseline and drug treated groups (p<0.05). The symbol # indicates a significant difference between vehicle treated (ADE) and drug treated groups (p<0.05).
Method: Methods for this experiment were as described in EXAMPLE 3. Following the maintenance ethanol self-administration experiment, rats were re-baselined and once reliable levels of alcohol-reinforced self-administration were achieved, rats were confined to their home cages for a 10-day period. Prior to reintroduction to the test chamber, animals were injected with Compound (0, 5, 10 and 20 mg/kg).

hMC1bR = hMC1bR (Homo sapiens, UniProt Q01726); assay: cAMP functional assay (agonist); type: cell-based; conditions: functional selectivity stated in text; 45 min
Sequence of hMC1bR (Q01726 whole entry): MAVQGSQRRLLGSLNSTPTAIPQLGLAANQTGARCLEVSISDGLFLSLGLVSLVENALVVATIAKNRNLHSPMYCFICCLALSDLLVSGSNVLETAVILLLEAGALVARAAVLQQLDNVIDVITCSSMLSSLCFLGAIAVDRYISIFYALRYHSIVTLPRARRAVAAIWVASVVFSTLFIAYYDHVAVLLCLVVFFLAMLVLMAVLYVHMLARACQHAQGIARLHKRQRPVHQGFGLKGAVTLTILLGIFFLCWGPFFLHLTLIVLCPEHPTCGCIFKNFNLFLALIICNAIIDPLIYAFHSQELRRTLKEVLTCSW
Description: Cells (for example, CHO- or L-cells or other eukaryotic cells) expressing a human melanocortin receptor (see e.g. Yang-YK; Ollmann-MM; Wilson-BD; Dickinson-C; Yamada-T; Barsh-GS; Gantz-I; Mol-Endocrinol. 1997 March; 11(3): 274-80) were dissociated from tissue culture flasks by rinsing with Ca and Mg free phosphate buffered saline (14190-136, Life Technologies, Gaithersburg, Md.) and detached following 5 min incubation at 37° C. with enzyme free dissociation buffer (S-014-B, Specialty Media, Lavellette, N.J.). Cells were collected by centrifugation and resuspended in Earle's Balanced Salt Solution (14015-069, Life Technologies, Gaithersburg, Md.) with additions of 10 mM HEPES pH 7.5, 5 mM MgCl2, 1 mM glutamine and 1 mg/ml bovine serum albumin. Cells were counted and diluted to 1 to 5×10^6/mL. The phosphodiesterase inhibitor 3-isobutyl-1-methylxanthine was added to cells to 0.6 mM.
Agonist Assay: Test compounds were diluted in dimethylsulfoxide (DMSO) (10^−5 to 10^−10 M) and 0.1 volume of compound solution was added to 0.9 volumes of cell suspension; the final DMSO concentration was […]. After room temperature incubation for 45 min, cells were lysed by incubation at 100° C. for 5 min to release accumulated cAMP.
cAMP was measured in an aliquot of the cell lysate with the Amersham (Arlington Heights, Ill.) cAMP detection assay (RPA556). […]

Male Wistar rats [2] = assay: Maintenance operant ethanol self-administration (animal model of alcohol reward); type: in vivo, rat
Description: as §1
FIG. 2. […] Operant training for oral ethanol in 30 minute test sessions in rats (n=8-10). Melanocortin 4 receptor agonist, Compound A, was administered at 0, 5, 10 or 20 mg/kg, po prior to testing. […] The symbol * indicates a significant difference between the vehicle and drug treated groups (p<0.05).
Animals: Male Wistar rats were used in all experiments. Body weight was 180-200 g at the start of the experiments. Rats were housed 2-3 per cage with food and water available ad libitum. Lights were on a 12-hour light/dark cycle, with lights on at 0600. All procedures met the guidelines of the National Institutes of Health Guide for the Care and Use of Laboratory Animals.
Operant Ethanol Self-Administration: Ethanol dilutions (5, 8 and 10% w/v) were prepared with 95% ethyl alcohol and tap water. Saccharin (Sigma Chemical Co., St. Louis, Mo.) was added to water or ethanol solutions to achieve a concentration of 0.2% w/v. Standard operant chambers (Med Associates, VT) housed in sound-attenuated chambers were used for ethanol self-administration. Syringe pumps dispensed ethanol and water into two stainless steel reservoirs mounted 4 cm above the floor of the chamber, centered between the two operant levers. The two retractable levers were located 4.5 cm to either side of the fluid reservoir. Fluid delivery and recording of operant responding were controlled by microcomputer. Rats were trained on a continuous reinforcement fixed-ratio 1 (FR1) schedule to self-administer oral alcohol (10% w/v, 0.1 ml per delivery) or water in 30 minute sessions. […]

Compound | Voluntary ethanol drinking (AA rats) | Alcohol deprivation effect (ethanol consumed after 10 day deprivation) (Male Wistar rats [1]; 5 mg/kg) | Alcohol deprivation effect (ethanol consumed after 10 day deprivation) (Male Wistar rats [1]; 10 mg/kg) | Alcohol deprivation effect (ethanol consumed after 10 day deprivation) (Male Wistar rats [1]; 20 mg/kg) | Water consumption (Male Wistar rats [1]; ADE test, any dose (5, 10, 20 mg/kg, po)) | Alcohol deprivation effect, overall statement (Male Wistar rats [1]; male Wistar rats, 10 day forced deprivation, FIG. 3) | EC50 for melanocortin 4 receptor lower than for melanocortin 1 receptor (hMC1bR) | Ethanol self-administration (10% w/v), 30 minute session (Male Wistar rats [2]; 20 mg/kg, po, vs vehicle/baseline, p<0.05) | Water consumption (Male Wistar rats [2]; maintenance test, any dose (5, 10, 20 mg/kg, po)) | Reduction of ethanol self administration (Male Wistar rats [2]; male Wistar rats, dose dependent, FIG. 2)
MTII | significantly reduces voluntary ethanol drinking | – | – | – | – | – | – | – | – | –
CC[C@H](NC(C)=O)c1cc(Cl)ccc1C1CCN(C(=O)C2CN(C(C)(C)C)C[C@H]2c2ccc(F)cc2F)CC1 (stereo partly shown) [Compound A] | – | blocking the ADE; also recorded: significant attenuation of the alcohol deprivation effect | blocking the ADE; also recorded: significant attenuation of the alcohol deprivation effect | significant decrease below baseline levels of consumption; also recorded: further reduction below baseline levels | not significantly altered; also recorded: not significantly changed | reduced the increase in ethanol consumption | at least 120 fold | significant reductions from baseline levels; also recorded: significant reduction in ethanol self-administration | not significantly altered; also recorded: not significantly changed; also recorded: no significant effects on water consumption | approximately 50%
